Results reported in patent US10239957B2, “Peptide containing conjugates for dual molecular delivery of oligonucleotides” (Merck Sharp & Dohme Corp., priority 2013, dated 2019).
Where no end group is shown, it is not given here. [ ]: non-standard residue; d: D form.

Test system: CTNNB1
Experiment: In vitro DMD assay: mRNA silencing enhancement by peptide conjugates after siRNA-IV treatment
Assay type: cell-based
Details: primary mouse hepatocytes, siRNA-IV 125 nM baseline
Method: Cryopreserved primary Mouse hepatocytes (Bioreclamation, LLC) were placed into Collagen Type I coated 96-well plates at 25,000 cells per well in serum-containing InVitroGRO CP media (Bioreclamation, LLC) and allowed 5 hours to attach. Media was replaced with InVitroGRO HI media and cells were treated with siRNA-IV at 125 nM [siRNA] for 1 hour. Media was replaced with InVitroGRO HI media and cells were treated for approximately 16 hours with experimental Peptide conjugates at various concentrations to establish a dose-response curve. Peptide conjugates were washed out after 16 hours with InVitroGRO HI media and cells allowed to incubate for an additional 24 hours. Cells were then lysed and mRNA expression of the siRNA target was measured by RT-qPCR (Applied Biosystems Taqman reagents). mRNA silencing activity of each Peptide conjugate was expressed as an enhancement above the baseline activity of 125 nM siRNA-IV alone with respect to the untreated cells and all siRNA target Ct values were normalized to PPIB mRNA for each well (dddCt) and summarized.
The structure of TGN-S-S-peptide is shown below and the activity data is listed in Table 5 (siRNA-IV concentration was kept at […]).

| Substance | In vitro dddCt (vs. baseline SCE dose) (Targeted peptide dose 8 nM) | In vitro dddCt (vs. baseline SCE dose) (Targeted peptide dose 40 nM) | In vitro dddCt (vs. baseline SCE dose) (Targeted peptide dose 200 nM) | In vitro dddCt (vs. baseline SCE dose) (Targeted peptide dose 1000 nM) | In vitro dddCt (vs. baseline SCE dose) (Targeted peptide dose 5000 nM) |
| --- | --- | --- | --- | --- | --- |
| TGN-S-S-SEQ ID NO: 1759 (D) ([dC]G[dL][dF]G[dE][dI][dE][dE][dL][dI][dE][dE]G[dL][dE][dS][dL][dI][dD][dW]G[dN]G; not fully specified (residue 1); also: disulfide to TGN peptide via Cys1; listed as Homo sapiens) | −0.15 | −0.87 | −1.65 | −1.66 |  |
| TGN-S-S-SEQ ID NO: 1760 (D) ([dC]G[dL][dF]G[dE][dI][dE][dE][dL][dI][dE][dE]G[dL][dE][dQ][dL][dI][dD][dW]G[dN]G; not fully specified (residue 1); also: disulfide to TGN peptide via Cys1; listed as Homo sapiens) | −0.09 | −1.01 | −1.6 | −1.8 | −1.46 |
| TGN-S-S-SEQ ID NO: 1761 (D) ([dC]G[dL][dF]G[dE][dI][dE][dE][dL][dI][dE][dE]G[dL][dE][dN][dW][dI][dD][dW]G[dN]G; not fully specified (residue 1); also: disulfide to TGN peptide via Cys1; listed as Homo sapiens) | 0.08 | −0.25 | −0.22 | −0.07 | −0.11 |
| TGN-S-S-SEQ ID NO: 1762 (D) ([dC]G[dL][dF]G[dE][dI][dE][dE][dL][dI][dE][dE]G[dL][dE][dN][dF][dI][dD][dW]G[dN]G; not fully specified (residue 1); also: disulfide to TGN peptide via Cys1; listed as Homo sapiens) | −0.07 | 0.03 | −0.17 | −0.39 | −0.08 |
| TGN-S-S-SEQ ID NO: 1763 (D) ([dC]G[dL][dF]G[dE][dI][dE][dE][dL][dI][dE][dE]G[dL][dE][dN][dL][dW][dD][dW]G[dN]G; not fully specified (residue 1); also: disulfide to TGN peptide via Cys1; listed as Homo sapiens) | −0.13 | −0.67 | −1.26 | −1.44 | −1.29 |
| TGN-S-S-SEQ ID NO: 1764 (D) ([dC]G[dL][dF]G[dE][dI][dE][dE][dL][dI][dE][dE]G[dL][dE][dN][dL][dV][dD][dW]G[dN]G; not fully specified (residue 1); also: TGN conjugated via disulfide at Cys1; listed as Homo sapiens) | −0.03 | −0.41 | −0.78 | −0.62 | −0.75 |
| TGN-S-S-SEQ ID NO: 1765 (D) ([dC]G[dL][dF]G[dE][dI][dE][dE][dL][dI][dE][dE]G[dL][dE][dN][dL][dI][dE][dW]G[dN]G; not fully specified (residue 1); also: TGN conjugated via disulfide at Cys1; listed as Homo sapiens) | −0.04 | −0.38 | −0.88 | −1.23 | −1.23 |
| TGN-S-S-SEQ ID NO: 1772 (D) ([dC]G[dL][dF][dE][dA][dL][dL][dE][dL][dL][dE][dS][dL][dW][dE][dL][dL][dL][dE][dA]G[dY]G; not fully specified (residue 1); also: TGN conjugated via disulfide at Cys1; listed as Homo sapiens) | 0.03 | −0.15 | −0.15 | −0.17 | −0.08 |
| TGN-S-S-SEQ ID NO: 1775(D) ([dC]G[dL][dF][dE][dA][dL][dL][dE][dL][dL][dE][dS][dL][dW][dE][dL][dL][dL][dE][dA]; not fully specified (residue 1); also: TGN conjugated via disulfide at Cys1; listed as Homo sapiens) | −0.1 | −0.14 | −0.14 | −0.11 | −0.37 |
| TGN-S-S-SEQ ID NO: 1777 (D) ([dC]G[dN][dF]G[dE][dI][dE][dE][dL][dI][dE][dE]G[dL][dE][dN][dL][dI][dD][dW]G[dN]G; not fully specified (residue 1); also: TGN conjugated via disulfide at Cys1; listed as Homo sapiens) | −0.18 | 0.28 | −0.13 | −0.13 | 0.09 |
| TGN-S-S-SEQ ID NO: 1778 (D) ([dC]G[dL][dF][dA][dE][dI][dE][dE][dL][dI][dE][dE]G[dL][dE][dN][dL][dI][dD][dW]G[dN]G; not fully specified (residue 1); also: TGN conjugated via disulfide at Cys1; listed as Homo sapiens) | −0.38 | −0.57 | −0.91 | −1.54 |  |
| TGN-S-S-SEQ ID NO: 1779(D) ([dC]G[dL][dF][dE][dE][dI][dE][dE][dL][dI][dE][dE]G[dL][dE][dN][dL][dI][dD][dW]G[dN]G; not fully specified (residue 1); also: TGN conjugated via disulfide at Cys1; listed as Homo sapiens) | −0.18 | −0.24 | −1.29 | −1.52 | −1.51 |
| TGN-S-S-SEQ ID NO: 1780 (D) ([dC]G[dL][dF]G[dE][dI][dA][dE][dL][dI][dE][dE]G[dL][dE][dN][dL][dI][dD][dW]G[dN]G; not fully specified (residue 1); also: TGN conjugated via disulfide at Cys1; listed as Homo sapiens) | −0.11 | −1.05 | −2.83 | 0.18 | −3.2 |
| TGN-S-S-SEQ ID NO: 1781 (D) ([dC][dE][dL][dF]G[dE][dI][dE][dE][dL][dI][dE][dE]G[dL][dE][dN][dL][dI][dD][dW]G[dN]G; not fully specified (residue 1); also: TGN conjugated via disulfide at Cys1; listed as Homo sapiens) | −0.01 | −0.02 | 0.03 | −0.01 | 0.01 |
| TGN-S-S-SEQ ID NO: 1782 (D) ([dC][dA][dL][dF]G[dE][dI][dE][dE][dL][dI][dE][dE]G[dL][dE][dN][dL][dI][dD][dW]G[dN]G; not fully specified (residue 1); also: TGN conjugated via disulfide at Cys1; listed as Homo sapiens) | −0.14 | 0.43 | −0.17 | −0.21 |  |
| TGN-S-S-SEQ ID NO: 1784 (D) ([dC]G[dW][dF]G[dE][dI][dE][dE][dL][dI][dE][dE]G[dL][dE][dN][dL][dI][dD][dW]G[dN]G; not fully specified (residue 1); also: TGN conjugated via disulfide at Cys1; listed as Homo sapiens) | 0.07 | −0.22 | −0.57 | −1.01 | −0.81 |
| TGN-S-S-SEQ ID NO: 1785 (D) ([dC]G[dL][dF]G[dE][dL][dE][dE][dL][dI][dE][dE]G[dL][dE][dN][dL][dI][dD][dW]G[dN]G; not fully specified (residue 1); also: TGN conjugated via disulfide at Cys1; listed as Homo sapiens) | −0.1 | −0.44 | −1.68 | 0.84 | −2.03 |
